pEC50, pIC50: −log10 of the molar value. Each block holds one molecule with its values, some of them ahead of it.
Key:
COLO 205 = test: Inhibition of human CoLo205 cells; format: functional
HCT-116 [1] = test: Antitumor activity against human HCT116 cells xenografted in ip dosed nude mouse assessed as tumor volume inhibition; format: functional
Histone deacetylase [2] = test: Inhibition of HDAC from human K562 cells; format: cell-based
[3] = Antiproliferative activity against human MDA435 cells; format: functional, cell-based; conditions: MDA-MB-435
[4] = Metabolic stability in human liver microsomes; format: ADME, Microsome
Histone deacetylase 1 [5] = molecular target: T1, Histone deacetylase 1 (Homo sapiens, UniProt Q13547); test: Inhibition of HDAC1 from human HeLa cells; format: cell-based
PANC-1 = test: Antitumor activity against human PANC1 cells xenografted in nude mouse model at 50 mg/kg, po; format: functional; conditions: read-out: TGI
[6] = Bioavailability in […] dosed rat; format: ADME, organism-based; conditions: in vivo
SW48 [7] = test: Antitumor activity against human SW48 cells xenografted in nude mouse model at 30 mg/kg, po; format: functional; conditions: read-out: TGI
A549 [8] = test: Antitumor activity against human A549 cells xenografted in nude mouse model at 40 mg/kg, ip; format: functional; conditions: route intraperitoneal, read-out: TGI
A549 [9] = test: Antitumor activity against human A549 cells xenografted in nude mouse model at 50 mg/kg, po; format: functional; conditions: read-out: TGI
SW48 [10] = test: Antitumor activity against human SW48 cells xenografted in nude mouse model at 75 mg/kg, ip; format: functional; conditions: route intraperitoneal, read-out: TGI
HCT-116 [11] = test: Antitumor activity against human HCT116 cells xenografted in nude mouse model at 75 mg/kg, ip; format: functional; conditions: HCT-116, ip, route intraperitoneal, read-out: TGI
HCT-116 [12] = test: Inhibition of human HCT116 cells; format: functional, cell-based
A549 [13] = test: cells; conditions: Homo sapiens
Description: Antiproliferative activity against human A549 cells

Histone deacetylase [14] = test: Inhibition of HDAC from human SNU16 cells; conditions: snu-16
MKN-45 = test: Antiproliferative activity against human MKN45 cells; format: functional, cell-based
SK-BR-3 = test: Antiproliferative activity against human SKBR3 cells; format: functional, cell-based
Cytochrome P450 3A4 = Cytochrome P450 3A4 (Homo sapiens, UniProt P08684); test: Inhibition of CYP3A4; format: ADME
[15] = Inhibition of human CCD1059SK cells; format: functional, cell-based
MCF7 = test: Inhibition of human MCF7 cells; format: functional, cell-based
SW-620 = test: Inhibition of human SW620 cells; format: functional, cell-based
SW48 [16] = test: Antitumor activity against human SW48 cells xenografted in nude mouse model at 20 mg/kg, ip; format: functional; conditions: route intraperitoneal, read-out: TGI
A549 [17] = test: Antitumor activity against human A549 cells xenografted in nude mouse model at 20 mg/kg, ip; format: functional; conditions: route intraperitoneal, read-out: TGI
HCT-116 [18] = test: Antitumor activity against human HCT116 cells xenografted in nude mouse model at 20 mg/kg, ip; format: functional; conditions: HCT-116, ip, route intraperitoneal, read-out: TGI
Histone deacetylase [19] = test: Inhibition of HDAC from human Jurkat cells
Jurkat = test: Inhibition of human Jurkat cells; format: functional, cell-based
HL-60 = test: Inhibition of human HL60 cells; format: functional
HeLa = test: Inhibition of human HeLa cells; format: functional, cell-based
Histone deacetylase 3 = Histone deacetylase 3 (Homo sapiens, UniProt O15379)
Histone deacetylase 8 = molecular target: T2, Histone deacetylase 8 (Homo sapiens, UniProt Q9BY41)
T2 sequence (Q9BY41 whole entry): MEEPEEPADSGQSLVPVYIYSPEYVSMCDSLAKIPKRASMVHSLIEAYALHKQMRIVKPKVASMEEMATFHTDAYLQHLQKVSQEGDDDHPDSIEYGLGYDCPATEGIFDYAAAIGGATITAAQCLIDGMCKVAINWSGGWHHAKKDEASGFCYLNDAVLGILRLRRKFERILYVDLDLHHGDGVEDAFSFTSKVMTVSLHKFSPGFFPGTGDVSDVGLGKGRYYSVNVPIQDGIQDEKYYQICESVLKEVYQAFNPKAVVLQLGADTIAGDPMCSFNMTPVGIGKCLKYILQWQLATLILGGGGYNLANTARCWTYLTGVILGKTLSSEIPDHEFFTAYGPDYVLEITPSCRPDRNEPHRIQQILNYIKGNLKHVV

Histone deacetylase 1 [20] = molecular target: T1, Histone deacetylase 1
[21] = molecular target: T3, Protein deacetylase HDAC6 (Homo sapiens, UniProt Q9UBN7)
T3 sequence (Q9UBN7 whole entry): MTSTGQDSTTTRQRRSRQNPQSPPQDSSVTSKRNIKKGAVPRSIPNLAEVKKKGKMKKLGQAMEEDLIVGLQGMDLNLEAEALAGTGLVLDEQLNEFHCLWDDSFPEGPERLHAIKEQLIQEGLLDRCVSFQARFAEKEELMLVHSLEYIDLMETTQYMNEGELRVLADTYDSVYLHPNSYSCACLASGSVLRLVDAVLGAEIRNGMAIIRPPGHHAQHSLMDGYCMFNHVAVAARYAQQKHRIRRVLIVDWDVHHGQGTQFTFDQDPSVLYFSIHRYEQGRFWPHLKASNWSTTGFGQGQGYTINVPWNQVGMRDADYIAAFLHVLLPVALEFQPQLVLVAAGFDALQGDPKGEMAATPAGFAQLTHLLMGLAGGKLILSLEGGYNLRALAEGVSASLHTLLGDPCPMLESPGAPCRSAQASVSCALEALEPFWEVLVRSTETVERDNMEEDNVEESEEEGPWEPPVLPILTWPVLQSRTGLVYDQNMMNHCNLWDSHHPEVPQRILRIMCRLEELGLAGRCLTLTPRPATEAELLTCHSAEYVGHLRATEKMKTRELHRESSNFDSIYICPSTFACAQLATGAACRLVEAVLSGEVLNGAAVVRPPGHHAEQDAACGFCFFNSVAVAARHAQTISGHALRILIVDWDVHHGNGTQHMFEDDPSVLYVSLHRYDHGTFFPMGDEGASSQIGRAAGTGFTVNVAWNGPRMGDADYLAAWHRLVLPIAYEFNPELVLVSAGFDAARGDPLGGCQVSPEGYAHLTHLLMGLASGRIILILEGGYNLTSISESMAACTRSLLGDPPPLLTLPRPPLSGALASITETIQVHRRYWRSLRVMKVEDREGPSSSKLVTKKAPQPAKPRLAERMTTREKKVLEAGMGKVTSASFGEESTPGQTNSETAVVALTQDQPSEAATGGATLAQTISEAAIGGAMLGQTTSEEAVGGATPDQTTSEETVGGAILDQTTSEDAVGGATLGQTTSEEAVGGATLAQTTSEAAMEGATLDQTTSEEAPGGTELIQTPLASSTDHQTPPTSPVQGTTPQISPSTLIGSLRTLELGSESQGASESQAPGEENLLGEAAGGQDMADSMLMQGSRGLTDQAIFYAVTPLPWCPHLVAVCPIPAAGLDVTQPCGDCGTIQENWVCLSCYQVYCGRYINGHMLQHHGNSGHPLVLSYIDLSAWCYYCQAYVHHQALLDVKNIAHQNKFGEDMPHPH

NCI-H460 = test: Inhibition of human NCI-H460 cells; format: functional, cell-based

T1 sequence (Q13547 whole entry): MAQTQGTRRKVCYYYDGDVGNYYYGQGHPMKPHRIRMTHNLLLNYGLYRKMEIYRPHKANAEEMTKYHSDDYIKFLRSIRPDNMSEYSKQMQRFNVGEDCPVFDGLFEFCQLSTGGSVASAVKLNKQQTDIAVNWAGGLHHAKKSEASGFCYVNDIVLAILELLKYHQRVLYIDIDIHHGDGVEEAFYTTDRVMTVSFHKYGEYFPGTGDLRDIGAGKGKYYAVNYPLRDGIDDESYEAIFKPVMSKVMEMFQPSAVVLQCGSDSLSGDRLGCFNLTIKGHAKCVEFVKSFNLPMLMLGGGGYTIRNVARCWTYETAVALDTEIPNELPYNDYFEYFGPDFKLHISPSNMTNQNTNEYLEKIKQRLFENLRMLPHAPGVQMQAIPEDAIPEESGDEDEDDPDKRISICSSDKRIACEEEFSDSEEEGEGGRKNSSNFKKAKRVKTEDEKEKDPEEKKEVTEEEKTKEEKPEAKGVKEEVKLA
Histone deacetylase 3, sequence (O15379 whole entry): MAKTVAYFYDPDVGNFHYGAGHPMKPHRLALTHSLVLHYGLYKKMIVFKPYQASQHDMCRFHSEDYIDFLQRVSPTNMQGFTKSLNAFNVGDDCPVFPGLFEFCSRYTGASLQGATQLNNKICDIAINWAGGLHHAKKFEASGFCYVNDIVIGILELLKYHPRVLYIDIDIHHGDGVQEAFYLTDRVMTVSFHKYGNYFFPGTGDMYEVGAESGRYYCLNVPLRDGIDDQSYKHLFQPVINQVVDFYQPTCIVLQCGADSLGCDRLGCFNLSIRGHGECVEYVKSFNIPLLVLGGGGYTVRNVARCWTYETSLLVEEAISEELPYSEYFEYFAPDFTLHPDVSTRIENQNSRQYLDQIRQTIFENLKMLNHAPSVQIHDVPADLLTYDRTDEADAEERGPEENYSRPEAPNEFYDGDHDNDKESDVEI
Cytochrome P450 3A4, sequence (P08684 whole entry): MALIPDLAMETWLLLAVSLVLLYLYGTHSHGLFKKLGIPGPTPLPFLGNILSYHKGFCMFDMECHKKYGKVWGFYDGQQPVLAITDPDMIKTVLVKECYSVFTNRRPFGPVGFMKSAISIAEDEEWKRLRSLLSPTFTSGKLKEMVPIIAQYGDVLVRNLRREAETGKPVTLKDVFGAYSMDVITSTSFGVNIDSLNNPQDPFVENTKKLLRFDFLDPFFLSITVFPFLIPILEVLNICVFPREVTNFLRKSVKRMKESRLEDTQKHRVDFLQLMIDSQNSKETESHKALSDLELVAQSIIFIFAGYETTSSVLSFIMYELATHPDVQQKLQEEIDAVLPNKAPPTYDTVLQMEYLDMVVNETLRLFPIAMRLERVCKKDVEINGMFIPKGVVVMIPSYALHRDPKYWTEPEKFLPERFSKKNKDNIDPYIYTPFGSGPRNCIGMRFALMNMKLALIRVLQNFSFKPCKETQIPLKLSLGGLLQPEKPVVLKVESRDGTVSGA

SMILES: CC(C)(C)NCc1c(-c2ccccc2)nc2cc(/C=C/C(=O)NO)ccn12
GI50 (COLO 205): 260 nM

SMILES: COc1ccc(NCc2ccc(C(=O)Nc3cc(-c4cccs4)ccc3N)cc2)cc1OC
Inhibition (HCT-116 [1]): 72%

SMILES: O=C(/C=C/c1ccc(CNC(=O)c2cccnc2)cc1)NO
pIC50 (A549 [13]): 5.54
pIC50 (Histone deacetylase [14]): 6.43
pIC50 (MKN-45): 5.30
pIC50 (SK-BR-3): 5.89

SMILES: O=C(NO)c1ccc(-c2ccn(CCNCc3ccc4c(c3)OCO4)n2)s1
pIC50 (Cytochrome P450 3A4): 6.29
pIC50 (MKN-45): 6.20

SMILES: Nc1ccccc1NC(=O)c1ccc(CNC(=O)OCc2cccnc2)cc1 [ENTINOSTAT]
pIC50 [15]: 4.19
pIC50 (MCF7): 5.37
pIC50 (A549 [13]): 5.45
pIC50 (SW-620): 5.49
inhibition in vivo at 20 mg/kg (SW48 [16]): 68%
inhibition in vivo at 20 mg/kg (A549 [17]): 46%
inhibition in vivo at 20 mg/kg (HCT-116 [18]): 56%
pIC50 (MKN-45): 5.38
pIC50 (SK-BR-3): 6.06
pIC50 (HCT-116 [12]): 6.30

SMILES: COc1cc(NCc2ccc(/C=C/C(=O)Nc3cc(-c4cccs4)ccc3N)cc2)cc(OC)c1OC
Inhibition (HCT-116 [1]): 78%

SMILES: O=C(/C=C/c1ccc(CNC(=O)c2ccccn2)cc1)NO
pIC50 (A549 [13]): 5.65
pIC50 (Histone deacetylase [14]): 6.03
pIC50 (MKN-45): 5.44
pIC50 (SK-BR-3): 6.06

SMILES: O=C(/C=C/c1ccc(CN(CCO)CCc2cc3ccccc3[nH]2)cc1)NO
pIC50 (Histone deacetylase 3): 8.43
pIC50 (Histone deacetylase 8): 6.85
pIC50 (Histone deacetylase 1 [20]): 8.74
pIC50 [21]: 7.82

SMILES: CC(C)C(=O)SCCCCCCC(=O)Nc1ccccc1
pEC50 (NCI-H460): 4.70

Continued, in another order:

IC50 (Histone deacetylase [2]): 3.1 nM
SMILES: CNC(=O)C(=O)CCCCCCC(=O)Nc1nc(-c2ccc(CCN(C)C)cc2)cs1
pIC50 [3]: 6.80

microsomal CLint [4]: > 300 µL/min/mg
pIC50 (Histone deacetylase 1 [5]): 6.14
SMILES: COc1ccc2[nH]c(C)c(CC(=O)N[C@@H](CCCCCC(C)=O)C(=O)NCCc3c(-c4ccccc4)[nH]c4ccccc34)c2c1

bioavailability [6]: 20%
pIC50 (HCT-116 [12]): 6.40
SMILES: COc1ccc(NCc2ccc(C(=O)Nc3ccccc3N)cc2)cc1OC
inhibition in vivo at 50 mg/kg (PANC-1): 84%
inhibition in vivo at 30 mg/kg (SW48 [7]): 78%
inhibition in vivo at 40 mg/kg (A549 [8]): 73%
inhibition in vivo at 50 mg/kg (A549 [9]): 67%
inhibition in vivo at 75 mg/kg (SW48 [10]): 100%
inhibition in vivo at 75 mg/kg (HCT-116 [11]): 86%

IC50 (Histone deacetylase [19]): 28 nM
pIC50 (Jurkat): 7.16
SMILES: O=C(/C=C/c1ccc(Cc2nc3ccccc3[nH]2)cc1)NO

GI50 (HL-60): 400 nM
GI50 (HeLa): 40000 nM
SMILES: Nc1ccc(F)cc1NC(=O)c1ccc(CNC(=O)/C=C/c2ccccc2)cc1

— ChEMBL document CHEMBL1142268, “Histone deacetylase inhibitors: from bench to clinic” (J Med Chem, 2008)
